Consider 4 molecules from patent publication US20070197488A1, “Prodrugs of ERbeta-selective substances, process for their production, and pharmaceutical compositions that contain these compounds” (priority 2005, published 2007).

As usually defined, the IC50 is the concentration needed to halve the response being measured.

Series [1] deals with Human Carbonic Anhydrase I (Homo sapiens, UniProt P00915). The experiment in a line: Carbonic anhydrase inhibition (CO2 hydration, time to pH drop). The format is biochemical. Conditions: read-out: CAI IC50. The procedure:
(§1) b) Carbonic Anhydrase Inhibition—Test Principle and Test Description:
(§2) Carbonic anhydrases catalyze the CO2 hydration.
(§3) Test preparation: A constant CO2 stream is directed through a buffer that was mixed with carbonic anhydrase I or carbonic anhydrase II. The measuring parameter is the time that is required to drop the pH within defined limits. This parameter reflects the formation of H2CO3 in the medium. IC50-Inhibiting values are determined by test substances being pipetted into the test preparation.

Series [2] concerns the target Human Carbonic Anhydrase II (Homo sapiens, UniProt P00918). The series is described as above. Format: biochemical. Conditions: read-out: CAII IC50. The procedure:
as §1, §2, §3

Series [3] is described as follows: Plasma level of released mother estrogen after oral administration in ovariectomized rats. The format is in vivo, Wistar rats. Conditions: 1x oral 1 mg/animal, compared with oral 8-vinyl-E2. The procedure: Adult Wistar rats were ovariectomized 14 days after this operation for the study of the substances according to the invention. A treatment extended over 3 days (days 1-3), and on day 4, the animals were sacrificed. Then, the recovery of plasma for hormone-analytical and clinical-chemical determinations and the determination of uterus weights were carried out. In satellite tests, correspondingly conditioned animals were sacrificed and samples were taken of their blood after one-time treatment and at other times (see FIGS. 1 and 2).

Chain of Human Carbonic Anhydrase I (P00915 whole entry): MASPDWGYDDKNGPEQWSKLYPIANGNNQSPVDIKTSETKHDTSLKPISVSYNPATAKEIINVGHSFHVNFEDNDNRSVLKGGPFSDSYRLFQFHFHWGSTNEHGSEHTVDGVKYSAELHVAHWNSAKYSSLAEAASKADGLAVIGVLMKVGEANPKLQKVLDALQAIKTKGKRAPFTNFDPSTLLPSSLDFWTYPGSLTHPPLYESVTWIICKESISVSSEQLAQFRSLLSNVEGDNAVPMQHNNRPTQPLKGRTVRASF

`C=C[C@@]12CCc3cc(O)ccc3[C@H]1CC[C@]1(C)[C@@H](OC(=O)c3ccccc3)CC[C@H]12` [(3′-Hydroxy-8′beta-vinyl-estra-1′,3′,5′(10′)-trien-17′beta-yl)-benzoat]: the IC50 in series [1] and in series [2] was above 10000 nM each time.
For the molecule `C[C@]12CC[C@@H]3c4ccc(OS(N)(=O)=O)cc4CC[C@H]3[C@@H]1CC[C@@H]2O` [Estradiol-3-sulfamate], the IC50 amounted to 157 ± 10.6 nM in series [1] and 21.6 ± 1.5 nM in series [2].
On to `C=C[C@@]12CCc3cc(O)ccc3[C@H]1CC[C@]1(C)[C@@H](OC(=O)c3cccc(S(N)(=O)=O)c3)CC[C@H]12` [Example 1, (3′-Hydroxy-8′-vinylestra-1′,3′,5′(10′)-trien-17′β-yl)-3-sulfamoyl benzoate], for which the figures for the 50% inhibitory concentration (IC50) in series [1] and in series [2] were 3900 nM and 570 nM, respectively. For the same molecule, in series [3], the “Increase of the 8β-vinylestra-1,3,5(10)-triene-3,17β-diol level (8-vinyl-E2) in the plasma” value was “Considerably greater increase”.
`C=C[C@@]12CCc3cc(O)ccc3[C@H]1CC[C@]1(C)[C@@H](OC(=O)c3ccc(S(N)(=O)=O)cc3)CC[C@H]12` [Example 2, (3′-Hydroxy-8′-vinylestra-1′,3′,5′(10′)-trien-17′β-yl)-4-sulfamoyl benzoate]: the “Increase of the 8β-vinylestra-1,3,5(10)-triene-3,17β-diol level (8-vinyl-E2) in the plasma” value in series [3] is listed as “greater increase”.
